# Source: article PMC6895180 (Nature Communications, 2019)
# “And” between values parts separate entries of the source, which are not always exact repeats. Equal values may be shown once. Read-outs that look alike come from different tables or passages of the source.
# Tests used:
# T. brucei NY-SM cells = assay: Susceptibility assay, NY-SM cells; assay type: cell-based, Trypanosoma brucei brucei
# Protocol: (§1) Susceptibility assays with NY-SM[51], BS221[48] and TbAT1-KO[48] (derived from BS221) cells were performed using 10 concentrations of a 4-fold compound dilution series starting at 64 µM. Parasites were seeded at 4 × 10^3 parasites per well and exposed to drug compound for 72 h, after which resazurin (final concentration of 10 µg mL^−1) was added to the plates. Fluorescence intensities were determined after 6 h.
# [1] = system: AT1-KO T. b. brucei strain (derived from BS221); assay: Susceptibility assay, TbAT1-KO (derived from BS221); assay type: cell-based, Trypanosoma brucei brucei
# Protocol: as §1
# T. brucei ADKIN = target: T1, T. brucei ADKIN (Trypanosoma brucei brucei, UniProt Q584S6); assay: ADKIN assay (phosphorylation by purified recombinant enzyme, HPLC); assay type: biochemical; parameters: Conc.9-MP: unit not given here; conditions: for Conc.9-MP: TbAK assay; for Act (U/mg): TbAK
# T1 sequence (Q584S6 1-345): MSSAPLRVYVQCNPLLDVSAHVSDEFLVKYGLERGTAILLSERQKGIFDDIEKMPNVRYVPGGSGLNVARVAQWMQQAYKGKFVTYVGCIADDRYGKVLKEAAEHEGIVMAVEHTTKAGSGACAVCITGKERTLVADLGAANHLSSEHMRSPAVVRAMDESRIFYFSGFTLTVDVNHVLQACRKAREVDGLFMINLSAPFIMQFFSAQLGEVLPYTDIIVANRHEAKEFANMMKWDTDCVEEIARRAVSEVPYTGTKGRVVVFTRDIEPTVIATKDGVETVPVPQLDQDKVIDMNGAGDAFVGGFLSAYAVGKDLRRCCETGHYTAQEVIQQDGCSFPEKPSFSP
# Protocol: The T. brucei ADKIN enzyme was diluted in a buffer containing 0.05% (v/v) Tween-20, 50 mM KCl, 0.1 mM dithiothreitol, and 50 mM Tris-HCl, pH 7.5 (dilution buffer), prior to use in the assay. The final assay mixture contained 12.5 ng T. brucei ADKIN, a range between 50 and 1000 µM of nucleoside 9 (or 1000 µM deoxyadenosine in the control reaction), 100 mM KCl, 10 mM MgCl2, 0.5 mM ATP, 5 mM potassium phosphate and 50 mM Tris-HCl, pH 7.5. The assay was incubated at 37 °C for 30 min, and subsequently heated for 2 min at 100 °C to inactivate the enzyme, diluted with 2 volumes of water, centrifuged through a Nanosep 3k Omega filter and mixed 1:1:2 with water and mobile phase. The HPLC analysis was performed on a 2.1 × 150 mm ACE Excel C18 column using a mobile phase composition 4A:76B:20C (see nucleotide pool analysis, Supplementary Information for details). Using these conditions, consecutive samples could be loaded (Supplementary Fig. 12). After 4–5 samples, the column was washed with high percent A (80A:20C) to remove bound ADP and ATP before re-equilibrating the column to original conditions.
# [2] = system: bloodstream form T. brucei 427WT; assay: Wash-out experiments with T. brucei; assay type: cell-based, Trypanosoma brucei
# Protocol: Wash-out experiments with T. brucei
# A culture of bloodstream form T. brucei 427WT, at mid-log phase of growth, was harvested and resuspended at a density of 10^5 cells mL-1, in fresh medium containing either no test compound, or […]
# The cultures were incubated under standard conditions (37 °C/5% CO2) and cell counts were performed manually using a haemocytometer under phase contrast microscopy, every 24 h. The culture in continuous presence of analogue 9 was split in two at 8 h and 48 h (as indicated with arrows in Supplementary Figure S2). The split cultures were centrifuged and resuspended in the same volume of either fresh medium without test compound or fresh medium with the same concentration of compound 9 as before, reincubated. The detection limit for the manual cell count was 10^4 cells mL-1. […]
structure (smiles),measurement,setting,value
"Nc1ncnc2c1ccn2[C@@H]1O[C@H](CO)C[C@H]1O [Compound 9, 3’-deoxytubercidin]",IC50,"T. brucei NY-SM cells; NYsm parental cells, single replicates, read-out: IC50",7.98 nM and 7.87 nM
same,Inhibition (%),"T. brucei NY-SM cells; NYsm, 0.000244141 µM",0% and 3.5% and 5.32% and 2.3%
same,Inhibition (%),"T. brucei NY-SM cells; NYsm, 0.000976563 µM",5.56% and 15% and 14% and 7%
same,Inhibition (%),"T. brucei NY-SM cells; NYsm, 0.00390625 µM",52% and 44%
same,Inhibition (%),"T. brucei NY-SM cells; NYsm, 0.015625 µM",98%
same,Inhibition (%),"T. brucei NY-SM cells; NYsm, 1 µM",98%
same,IC50,"T. brucei NY-SM cells; Trypanosoma brucei, NYsm parental cells, single replicates, read-out: IC50",7.92 nM
same,inhibition at 0.00390625 µM,"T. brucei NY-SM cells; Trypanosoma brucei, NYsm, 0.00390625 µM",53%
same,inhibition at 0.015625 µM,"T. brucei NY-SM cells; Trypanosoma brucei, NYsm, 0.015625 µM",99%
same,inhibition at 0.0625 µM,"T. brucei NY-SM cells; Trypanosoma brucei, NYsm, 0.0625 µM",99%
same,inhibition at 0.25 µM,"T. brucei NY-SM cells; Trypanosoma brucei, NYsm, 0.25 µM",100%
same,inhibition at 1 µM,"T. brucei NY-SM cells; Trypanosoma brucei, NYsm, 1 µM",100%
same,inhibition at 4 µM,"T. brucei NY-SM cells; Trypanosoma brucei, NYsm, 4 µM",100%
same,inhibition at 16 µM,"T. brucei NY-SM cells; Trypanosoma brucei, NYsm, 16 µM",100%
same,inhibition at 64 µM,"T. brucei NY-SM cells; Trypanosoma brucei, NYsm, 64 µM",100%
same,IC50,"T. brucei NY-SM cells; Trypanosoma brucei, single determinations, read-out: IC50, NYsm",5.2 nM
same,IC50,"T. brucei NY-SM cells; single determinations, read-out: IC50, NYsm",5.9 nM and 6.6 nM and 3.6 nM and 4.6 nM and 3.7 nM and 6.4 nM
same,Inhibition (%),"[1]; TbAT1KO, 0.000976563 µM",0% and 2%
same,Inhibition (%),"[1]; TbAT1KO, 0.00390625 µM",5% and 10% and 0%
same,Inhibition (%),"[1]; TbAT1KO, 0.25 µM",89% and 94% and 60% and 62%
same,Inhibition (%),"[1]; TbAT1KO, 64 µM",100%
same,inhibition at 1 µM,"[1]; Trypanosoma brucei, TbAT1KO, 1 µM",98%
same,inhibition at 4 µM,"[1]; Trypanosoma brucei, TbAT1KO, 4 µM",99%
same,inhibition at 16 µM,"[1]; Trypanosoma brucei, TbAT1KO, 16 µM",99%
same,inhibition at 64 µM,"[1]; Trypanosoma brucei, TbAT1KO, 64 µM",99%
same,EC50,"[1]; Trypanosoma brucei, read-out: EC50 upon AT1-KO",150 ± 30 nM
same,Conc.9-MP,"T. brucei ADKIN; substrate 50 µM, 3 series",11.2244 and 8.987 and 9.705
same,Conc.9-MP,T. brucei ADKIN; substrate 100 µM,19.1548 and 15.376 and 17.4986
same,Conc.9-MP,T. brucei ADKIN; substrate 250 µM,33.0019 and 26.0907 and 28.4308
same,Conc.9-MP,T. brucei ADKIN; substrate 500 µM,42.1131 and 37.0292 and 37.487
same,Conc.9-MP,T. brucei ADKIN; substrate 1000 µM,45.1958 and 43.7663 and 38.425
same,Act (U/mg),"T. brucei ADKIN; substrate 50 µM, U = µmol/min",1.497 U/mg and 1.198 U/mg and 1.294 U/mg
same,Act (U/mg),T. brucei ADKIN; substrate 100 µM,2.554 U/mg and 2.05 U/mg and 2.333 U/mg
same,Act (U/mg),T. brucei ADKIN; substrate 250 µM,4.4 U/mg and 3.479 U/mg and 3.791 U/mg
same,Act (U/mg),T. brucei ADKIN; substrate 500 µM,5.615 U/mg and 4.937 U/mg and 4.998 U/mg
same,Act (U/mg),T. brucei ADKIN; substrate 1000 µM,6.0261 U/mg and 5.836 U/mg and 5.123 U/mg
same,Vmax mg^−1 with TbADKIN,"T. brucei ADKIN; mean and SE, n = 3",0.116 ± 0.0048 U (µmol s^−1)
same,Vmax/mg with TbADKIN (original value),T. brucei ADKIN; value before revision,6.93 ± 0.29 U (µmol . min-1)
same,parasites recovered after wash-out,"[2]; 0.500 µM, 48 h of exposure and subsequent removal, up to 120 h",no parasites were recovered
same,Manual cell count,"[2]; Exp. 1, 0.165 µM, 8 h wash, 8 h",60000 cells mL-1
same,Manual cell count,"[2]; Exp. 1, 0.165 µM, 8 h wash, 24 h",10000 cells mL-1
same,Manual cell count,"[2]; Exp. 1, 0.165 µM, 8 h wash, 48 h",40000 cells mL-1
same,Manual cell count,"[2]; Exp. 1, 0.165 µM, 8 h wash, 72 h",600000 cells mL-1
same,Manual cell count,"[2]; Exp. 1, 0.165 µM, 8 h wash, 96 h",3800000 cells mL-1
same,Manual cell count,"[2]; Exp. 1, 0.165 µM, 8 h wash, 120 h",1300000 cells mL-1
same,Manual cell count,"[2]; Exp. 1, 0.165 µM, 48 h wash, 72 h",20000 cells mL-1
same,Manual cell count,"[2]; Exp. 1, 0.165 µM, 48 h wash, 96 h",40000 cells mL-1
same,Manual cell count,"[2]; Exp. 1, 0.165 µM, 48 h wash, 120 h",280000 cells mL-1
same,Manual cell count,"[2]; Exp. 1, 0.165 µM, Continuous, 8 h",120000 cells mL-1
same,Manual cell count,"[2]; Exp. 1, 0.165 µM, Continuous, 96 h",10000 cells mL-1
same,Manual cell count,"[2]; Exp. 1, 0.165 µM, Continuous, 120 h",30000 cells mL-1
same,Manual cell count,"[2]; Exp. 2, 0.500 µM, 8 h wash, 8 h",55000 cells mL-1
same,Manual cell count,"[2]; Exp. 2, 0.500 µM, 8 h wash, 24 h",10000 cells mL-1
same,Manual cell count,"[2]; Exp. 2, 0.500 µM, 8 h wash, 48 h",10000 cells mL-1
same,Manual cell count,"[2]; Exp. 2, 0.500 µM, 8 h wash, 72 h",10000 cells mL-1
same,Manual cell count,"[2]; Exp. 2, 0.500 µM, 8 h wash, 96 h",30000 cells mL-1
same,Manual cell count,"[2]; Exp. 2, 0.500 µM, 8 h wash, 120 h",430000 cells mL-1
same,Manual cell count,"[2]; Exp. 2, 0.500 µM, Continuous, 8 h",110000 cells mL-1
